For 20 molecules, IC50 and inhibition in vivo results are on record in ChEMBL document CHEMBL1147757, “Design and preparation of 2-benzamido-pyrimidines as inhibitors of IKK” (Bioorg Med Chem Lett, 2006).

Where only a bound is given, the exact number is not on record here.

For assay [1], the target named is T1, Inhibitor of nuclear factor kappa-B kinase subunit alpha (Homo sapiens, UniProt O15111).
T1 sequence (O15111 whole entry): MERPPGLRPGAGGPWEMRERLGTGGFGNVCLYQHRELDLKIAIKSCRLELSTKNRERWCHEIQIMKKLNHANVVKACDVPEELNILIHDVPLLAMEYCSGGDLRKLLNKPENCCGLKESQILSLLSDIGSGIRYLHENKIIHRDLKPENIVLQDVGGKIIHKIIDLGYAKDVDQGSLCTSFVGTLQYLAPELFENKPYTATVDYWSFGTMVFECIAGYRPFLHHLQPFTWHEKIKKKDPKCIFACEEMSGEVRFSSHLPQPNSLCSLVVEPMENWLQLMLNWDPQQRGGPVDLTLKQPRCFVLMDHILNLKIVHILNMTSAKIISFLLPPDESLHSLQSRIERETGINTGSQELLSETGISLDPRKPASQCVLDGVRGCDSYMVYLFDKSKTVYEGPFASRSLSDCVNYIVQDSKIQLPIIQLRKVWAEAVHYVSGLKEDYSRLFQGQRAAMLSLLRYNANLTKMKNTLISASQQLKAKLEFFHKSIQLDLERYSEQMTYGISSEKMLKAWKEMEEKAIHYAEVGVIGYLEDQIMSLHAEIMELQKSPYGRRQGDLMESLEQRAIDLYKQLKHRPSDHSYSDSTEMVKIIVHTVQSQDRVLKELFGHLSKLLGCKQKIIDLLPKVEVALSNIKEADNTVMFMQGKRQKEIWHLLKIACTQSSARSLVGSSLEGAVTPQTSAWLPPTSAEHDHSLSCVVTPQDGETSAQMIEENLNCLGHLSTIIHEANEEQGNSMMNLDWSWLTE
The assay is described as follows: Inhibitory activity against IKK1.

Assay [2] has as its system Rattus norvegicus. Briefly: Inhibition of LPS-induced TNFalpha release into plasma in rat at 30 mg/kg, sc. Conditions: route subcutaneous. Type of assay: functional.
For assay [3], the target named is T2, Inhibitor of NF-kappa-B kinase (IKK) (Homo sapiens, UniProt O14920+O15111+Q9Y6K9). The assay is described as follows: Inhibition of LPS-induced TNFalpha release from human PBMC. In kind it is functional.
Assay [4] has as its target T2, Inhibitor of NF-kappa-B kinase (IKK). Briefly: Inhibition of TNF-alpha-stimulated expression of E-selectin in HUVEC cells. Type of assay: functional, cell-based.
The target is the same in assay [5]. Briefly: Inhibition of TNF-alpha-stimulated expression of ICAM1 in HUVEC cells. Type of assay: functional, cell-based.
Assay [6] shares this target. The assay is described as follows: Inhibition of TNF-alpha-stimulated expression of VCAM1 in HUVEC cells. In kind it is functional, cell-based.
In a further assay the test system is Mus musculus. Briefly: Inhibition of thioglycollate-induced polymorphonuclear neutrophil release in mouse peritoneum at 10 mg/kg, sc. The note with it: route subcutaneous. Type of assay: functional.
Assay [7] can be described thus: Inhibition of IFN-gamma-stimulated expression of HLA-DR. In kind it is functional.
The target of assay [8] is T2, Inhibitor of NF-kappa-B kinase (IKK). The assay is described as follows: Inhibitory activity against IKK complex isolated from HeLa cells. Type of assay: cell-based.
Assay [9] concerns Rattus norvegicus. The assay is described as follows: Inhibition of LPS-induced TNFalpha release into plasma in rat at 30 mg/kg, po. Type of assay: functional.
Assay [10] can be described thus: Inhibition of IFN-gamma-stimulated expression of beta-2 microglobulin. In kind it is functional.
Assay [11] deals with T2, Inhibitor of NF-kappa-B kinase (IKK). Briefly: Inhibition of TNF-alpha-stimulated IkappaBalpha degradation. Type of assay: functional.
For assay [12], the target named is T3, Inhibitor of nuclear factor kappa-B kinase subunit beta (Homo sapiens, UniProt O14920).
T3 sequence (O14920 whole entry): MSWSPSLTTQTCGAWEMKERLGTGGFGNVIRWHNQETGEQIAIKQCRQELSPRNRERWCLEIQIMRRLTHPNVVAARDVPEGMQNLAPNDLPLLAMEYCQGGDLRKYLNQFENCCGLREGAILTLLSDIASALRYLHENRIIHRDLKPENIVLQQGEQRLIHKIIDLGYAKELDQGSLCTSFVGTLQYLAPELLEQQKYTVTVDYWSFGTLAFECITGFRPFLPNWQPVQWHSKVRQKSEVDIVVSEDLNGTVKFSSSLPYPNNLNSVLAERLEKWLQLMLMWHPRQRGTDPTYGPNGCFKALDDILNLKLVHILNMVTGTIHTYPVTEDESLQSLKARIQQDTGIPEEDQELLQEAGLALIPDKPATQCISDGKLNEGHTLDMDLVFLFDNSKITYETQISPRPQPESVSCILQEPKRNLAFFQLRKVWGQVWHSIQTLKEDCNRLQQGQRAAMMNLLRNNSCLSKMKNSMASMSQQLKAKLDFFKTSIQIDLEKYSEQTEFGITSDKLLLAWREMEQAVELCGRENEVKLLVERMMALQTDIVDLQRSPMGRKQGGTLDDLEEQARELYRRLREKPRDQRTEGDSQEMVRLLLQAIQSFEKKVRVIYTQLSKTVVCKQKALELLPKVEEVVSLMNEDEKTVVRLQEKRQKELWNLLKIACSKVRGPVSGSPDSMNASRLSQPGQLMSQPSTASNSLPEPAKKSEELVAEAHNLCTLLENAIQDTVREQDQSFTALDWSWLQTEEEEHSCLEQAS
The assay is described as follows: Inhibitory activity against IKK2.

T2 sequence (Q9Y6K9 whole entry, one chain of several): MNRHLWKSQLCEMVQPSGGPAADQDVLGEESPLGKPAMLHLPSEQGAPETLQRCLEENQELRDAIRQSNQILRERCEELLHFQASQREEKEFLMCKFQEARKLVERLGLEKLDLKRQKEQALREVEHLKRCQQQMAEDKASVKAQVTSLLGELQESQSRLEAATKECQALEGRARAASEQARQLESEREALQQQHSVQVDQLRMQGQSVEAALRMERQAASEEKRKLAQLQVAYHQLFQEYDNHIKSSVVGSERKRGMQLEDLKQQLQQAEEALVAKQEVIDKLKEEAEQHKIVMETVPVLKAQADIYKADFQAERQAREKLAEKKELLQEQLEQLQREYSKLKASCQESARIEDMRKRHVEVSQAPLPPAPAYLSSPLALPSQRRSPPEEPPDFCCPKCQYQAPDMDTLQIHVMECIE

`O=C(c1ccc(Nc2nccc(-c3cc4ccccc4s3)n2)cc1)N1CCC(N2CCCC2)CC1`: the IC50 – broadly, the concentration that inhibits the measured activity by half – in assay [1] turned out to be 200 nM; in assay [3], 300 nM; in assay [4] it was 500 nM; in assay [5], 300 nM; in assay [6], 300 nM; in assay [7] it was 2000 nM. Besides, the IC50 was 70 nM in assay [8], 2 µM in assay [10], 1000 nM in assay [11] and 40 nM in assay [12]. The figures for the inhibition in vivo at 30 mg/kg with Rattus norvegicus [2] and in the assay with Rattus norvegicus [9] were 86% and 75%, respectively. Besides, the inhibition in vivo (commonly the percentage by which the read-out fell short of the control) at 10 mg/kg in the assay with Mus musculus turned out to be 50%.
Take `O=C(O)c1ccc(Nc2nccc(-c3cc4ccccc4s3)n2)cc1`: the 50% inhibitory concentration (IC50) was 5000 nM in assay [1]; 50000 nM in assay [4]; 50000 nM in assay [5]; 50000 nM in [6]; 100000 nM in assay [7]; 18000 nM in assay [8]. The results for the half-maximal inhibitory concentration (IC50) in [10], in assay [11] and in [12] were 100 µM, 100000 nM and 600 nM, respectively.
`CCC(N)(CC)CCc1ccc(-c2ccnc(Nc3ccc(C(=O)N4CCC(N5CCCC5)CC4)cc3)n2)s1`: the IC50 came to 30 nM in assay [1], 30 nM in [8] and 60 nM in assay [12].
Consider `CC(=O)NC(C)(C)CCc1ccc(-c2ccnc(Nc3ccc(C(=O)N4CCC(N5CCCC5)CC4)cc3)n2)s1`, for which the IC50 in [1] turned out to be 30000 nM; in [8], 800 nM; in assay [12], 150 nM.
Take `COCCCc1ccc(-c2ccnc(Nc3ccc(C(=O)N4CCC(N5CCCC5)CC4)cc3)n2)s1`: the IC50 worked out at 1000 nM in [1]; 400 nM in assay [4]; 600 nM in assay [5]; 500 nM in [6]; 2000 nM in [7]; 100 nM in assay [8]. Also, the IC50 turned out to be 5 µM in assay [10], 1000 nM in assay [11] and 100 nM in [12].
`O=C(c1ccc(Nc2nccc(-c3cc4ccccc4s3)n2)cc1Cl)N1CCC(N2CCCC2)CC1`: the results for the IC50 in assay [1], in assay [8] and in [12] were 400 nM, 250 nM and 90 nM, respectively.
With `CN(C)CCNC(=O)c1ccc(Nc2nccc(-c3cc4ccccc4s3)n2)cc1`, the IC50 in assay [1] was determined as 1200 nM; in assay [4], 500 nM; in [5] it was 500 nM; in assay [6] it was 500 nM; in assay [8], 300 nM; in assay [10] it was 2 µM. Besides, the values for the IC50 in assay [11] and in assay [12] were 5000 nM and 200 nM, respectively.
With `CC(C)CCNC(=O)c1ccc(Nc2nccc(-c3cc4ccccc4s3)n2)cc1`, in assay [12], the IC50 was over 100000 nM.
For the molecule `CC(C)(N)CCc1ccc(-c2ccnc(Nc3ccc(C(=O)N4CCC(N5CCCC5)CC4)cc3)n2)s1`, the values for the IC50 in assay [1], in [8] and in assay [12] were 30 nM, 40 nM and 40 nM, respectively.
Turning to `O=C(NCCN1CCCC1)c1ccc(Nc2nccc(-c3cc4ccccc4s3)n2)cc1`, the values for the IC50 in assay [1], in assay [8] and in [12] were 1200 nM, 500 nM and 400 nM, respectively.
Consider `O=C(O)Cc1ccc(Nc2nccc(-c3cc4ccccc4s3)n2)cc1`, for which half-maximal inhibition in assay [12] (IC50) required 2200 nM. In other words, the single-digit micromolar range.
For `O=C(O)c1ccccc1Nc1nccc(-c2cc3ccccc3s2)n1`, the half-maximal inhibitory concentration (IC50) in assay [1], in assay [8] and in assay [12] was over 100000 nM each time.
As to `CC(C)(O)CCc1ccc(-c2ccnc(Nc3ccc(C(=O)N4CCC(N5CCCC5)CC4)cc3)n2)s1`, the IC50 in assay [1] was determined as 700 nM; in assay [4], 450 nM; in assay [5] it was 500 nM; in assay [6], 600 nM; in [7], 3000 nM; in [8], 50 nM. Besides, the IC50 came to 5 µM in [10], 2000 nM in assay [11] and 50 nM in assay [12].
`O=C(O)c1cccc(Nc2nccc(-c3cc4ccccc4s3)n2)c1`: 1000 nM corresponded to half-maximal inhibition in assay [12] (IC50).
`CC(C)(N)C#Cc1ccc(-c2ccnc(Nc3ccc(C(=O)N4CCC(N5CCCC5)CC4)cc3)n2)s1`: the values for the IC50 in assay [1], in assay [8] and in assay [12] were 500 nM, 200 nM and 150 nM, respectively.
`O=C(c1ccc(Nc2nccc(-c3cc4ccccc4s3)n2)cc1)N1CCCC1`: the IC50 amounted to 3800 nM in [1]; 2000 nM in assay [4]; 2000 nM in [5]; 2000 nM in [6]; 250 nM in assay [7]; 8500 nM in [8]. Further, the results for the IC50 in assay [10], in assay [11] and in assay [12] were 10 µM, 20000 nM and 900 nM, respectively.
`CN(C)C1CCN(C(=O)c2ccc(Nc3nccc(-c4cc5ccccc5s4)n3)cc2)CC1`: the IC50 worked out at 150 nM in [1]; 300 nM in assay [4]; 400 nM in assay [5]; 400 nM in assay [6]; 2000 nM in [7]; 80 nM in assay [8]. For the same molecule, the IC50 in assay [10] came out at 2 µM; in assay [11], 2000 nM; in assay [12], 40 nM.
Take `COc1cc(Nc2nccc(-c3cc4ccccc4s3)n2)ccc1C(=O)N1CCC(N2CCCC2)CC1`: the IC50 in assay [1] was 100 nM; in assay [8], 150 nM; in [12] it was 50 nM.
As for `NCCNC(=O)c1ccc(Nc2nccc(-c3cc4ccccc4s3)n2)cc1`, the IC50 in [1] turned out to be 3700 nM; in assay [8], 4400 nM; in assay [12], 600 nM.
Take `O=C(c1ccc(Nc2nccc(-c3ccc(CCCCO)s3)n2)cc1)N1CCC(N2CCCC2)CC1`: the IC50 in [1] turned out to be 500 nM; in [4], 200 nM; in [5], 200 nM; in assay [6], 200 nM; in assay [7], 2500 nM; in [8], 40 nM. Also, the IC50 in assay [10] came to 5 µM; in assay [11], 2000 nM; in assay [12], 25 nM.
